Tests used:
Type in all cases: in vivo
[1] = test system: Alopecurus myosuroides (ALOMY); assay: Post-emergence herbicidal glasshouse test on Alopecurus myosuroides; settings: post-emergence, 1000 g/h, evaluated after 13 days
Outline: (§1)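 Scoring scale: 5=80-100%, 4=60-79%, 3=40-59%, 2=20-39%, 1=0-19% damage, assessed on day 13. Compound sprayed at 1000 g/h on soil-grown plants (day 1 pre-, day 8 post-emergence) kept at 24/16 °C, 14 h light.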

Setaria faberi (SETFA) [2] = assay: Pre-emergence herbicidal glasshouse test on Setaria faberi; settings: pre-emergence, 1000 g/h, evaluated after 13 days
Outline: as §1

[3] = test system: Ipomoea hederacea (IPOHE); assay: Post-emergence herbicidal glasshouse test on Ipomoea hederacea; settings: post-emergence, 1000 g/h, evaluated after 13 days
Outline: as §1

Solanum nigrum (SOLNI) [4] = assay: Post-emergence herbicidal glasshouse test on Solanum nigrum; settings: post-emergence, 1000 g/h, evaluated after 13 days
Outline: as §1

[5] = test system: Alopecurus myosuroides (ALOMY); assay: Pre-emergence herbicidal glasshouse test on Alopecurus myosuroides; settings: pre-emergence, 1000 g/h, evaluated after 13 days
Outline: as §1

[6] = test system: Echinochloa crus-galli (ECHCG); assay: Pre-emergence herbicidal glasshouse test on Echinochloa crus-galli; settings: pre-emergence, 1000 g/h, evaluated after 13 days
Outline: as §1

[7] = test system: Echinochloa crus-galli (ECHCG); assay: Post-emergence herbicidal glasshouse test on Echinochloa crus-galli; settings: post-emergence, 1000 g/h, evaluated after 13 days
Outline: as §1

Setaria faberi (SETFA) [8] = assay: Post-emergence herbicidal glasshouse test on Setaria faberi; settings: post-emergence, 1000 g/h, evaluated after 13 days
Outline: as §1

Solanum nigrum (SOLNI) [9] = assay: Pre-emergence herbicidal glasshouse test on Solanum nigrum; settings: pre-emergence, 1000 g/h, evaluated after 13 days
Outline: as §1

[10] = test system: Amaranthus retoflexus (AMARE); assay: Post-emergence herbicidal glasshouse test on Amaranthus retoflexus; settings: post-emergence, 1000 g/h, evaluated after 13 days
Outline: as §1

[11] = test system: Ipomoea hederacea (IPOHE); assay: Pre-emergence herbicidal glasshouse test on Ipomoea hederacea; settings: pre-emergence, 1000 g/h, evaluated after 13 days
Outline: as §1

[12] = test system: Amaranthus retoflexus (AMARE); assay: Pre-emergence herbicidal glasshouse test on Amaranthus retoflexus; settings: pre-emergence, 1000 g/h, evaluated after 13 days
Outline: as §1

SMILES | POST Application ALOMY herbicidal damage (five point scale) [1] | PRE Application SETFA herbicidal damage (five point scale) (Setaria faberi (SETFA) [2]) | POST Application IPOHE herbicidal damage (five point scale) [3] | POST Application SOLNI herbicidal damage (five point scale) (Solanum nigrum (SOLNI) [4]) | PRE Application ALOMY herbicidal damage (five point scale) [5] | PRE Application ECHCG herbicidal damage (five point scale) [6] | POST Application ECHCG herbicidal damage (five point scale) [7] | POST Application SETFA herbicidal damage (five point scale) (Setaria faberi (SETFA) [8]) | PRE Application SOLNI herbicidal damage (five point scale) (Solanum nigrum (SOLNI) [9]) | POST Application AMARE herbicidal damage (five point scale) [10] | PRE Application IPOHE herbicidal damage (five point scale) [11] | PRE Application AMARE herbicidal damage (five point scale) [12] | further results
Cn1ncc(-c2ccc(C#N)cc2S(C)(=O)=O)c(O)c1=O [Compound 1.141] | 5 (5=80-100% damage) | 5 (5=80-100% damage) | 5 (5=80-100% damage) | 5 (5=80-100% damage) | 5 (5=80-100% damage) | 5 (5=80-100% damage) | 5 (5=80-100% damage) | 5 (5=80-100% damage) | 5 (5=80-100% damage) | 5 (5=80-100% damage) | 5 (5=80-100% damage) | 5 (5=80-100% damage) | 
Cn1ncc(-c2cccn(-c3cccc(Cl)c3)c2=O)c(O)c1=O [Compound 1.143] | 2 (2=20-39% damage) | 1 (1=0-19% damage) | 1 (1=0-19% damage) | 4 (4=60-79% damage) | 2 (2=20-39% damage) | 1 (1=0-19% damage) | 2 (2=20-39% damage) | 1 (1=0-19% damage) | 1 (1=0-19% damage) | 1 (1=0-19% damage) | 1 (1=0-19% damage) | 3 (3=40-59% damage) | 
COCn1ncc(-c2ccccc2S(C)(=O)=O)c(O)c1=O [Compound 1.144] | 5 (5=80-100% damage) | 4 (4=60-79% damage) | 5 (5=80-100% damage) | 5 (5=80-100% damage) | 5 (5=80-100% damage) | 5 (5=80-100% damage) | 5 (5=80-100% damage) | 5 (5=80-100% damage) | 5 (5=80-100% damage) | 5 (5=80-100% damage) | 4 (4=60-79% damage) | 5 (5=80-100% damage) | 
COCn1ncc(-c2ccccc2[S+](C)[O-])c(O)c1=O (stereo not drawn) [Compound 1.145] | 3 (3=40-59% damage) | 2 (2=20-39% damage) | 5 (5=80-100% damage) | 5 (5=80-100% damage) | 1 (1=0-19% damage) | 4 (4=60-79% damage) | 5 (5=80-100% damage) | 5 (5=80-100% damage) | 2 (2=20-39% damage) | 5 (5=80-100% damage) | 1 (1=0-19% damage) | 5 (5=80-100% damage) | 
COCn1ncc(-c2ccc(C(F)(F)F)cc2[S+](C)[O-])c(O)c1=O (stereo not drawn) [Compound 1.146] | 5 (5=80-100% damage) | 2 (2=20-39% damage) | 5 (5=80-100% damage) | 5 (5=80-100% damage) | 4 (4=60-79% damage) | 5 (5=80-100% damage) | 5 (5=80-100% damage) | 5 (5=80-100% damage) | 5 (5=80-100% damage) | 5 (5=80-100% damage) | 4 (4=60-79% damage) | 5 (5=80-100% damage) | 
Cn1ncc(-c2cccn(-c3cccc([N+](=O)[O-])c3)c2=O)c(O)c1=O [Compound 1.147] | 1 (1=0-19% damage) | 2 (2=20-39% damage) | 1 (1=0-19% damage) | 3 (3=40-59% damage) | 1 (1=0-19% damage) | 1 (1=0-19% damage) | 1 (1=0-19% damage) | 1 (1=0-19% damage) | 1 (1=0-19% damage) | 1 (1=0-19% damage) | 1 (1=0-19% damage) | 2 (2=20-39% damage) | 
Cn1ncc(-c2cccn(-c3cccc(F)c3)c2=O)c(O)c1=O [Compound 1.148] | 1 (1=0-19% damage) | 1 (1=0-19% damage) | 3 (3=40-59% damage) | 3 (3=40-59% damage) | 1 (1=0-19% damage) | 1 (1=0-19% damage) | 2 (2=20-39% damage) | 4 (4=60-79% damage) | 1 (1=0-19% damage) | 2 (2=20-39% damage) | 2 (2=20-39% damage) | 1 (1=0-19% damage) | 
Cn1ncc(-c2c(F)cnc(F)c2F)c(O)c1=O [Compound 1.149] | 2 (2=20-39% damage) | 1 (1=0-19% damage) | 1 (1=0-19% damage) | 4 (4=60-79% damage) | 1 (1=0-19% damage) | 1 (1=0-19% damage) | 1 (1=0-19% damage) | 1 (1=0-19% damage) | 1 (1=0-19% damage) | 4 (4=60-79% damage) | 1 (1=0-19% damage) | 1 (1=0-19% damage) | 
COc1nccc(-c2cnn(C)c(=O)c2O)c1Cl [Compound 1.150] |  |  |  |  |  |  |  |  |  |  |  |  | herbicidal damage, POST Application ALOMY ([1]; five point scale): 1 (1=0-19% damage); herbicidal damage, PRE Application SETFA (Setaria faberi (SETFA) [2]; five point scale): 1 (1=0-19% damage); herbicidal damage, POST Application IPOHE ([3]; five point scale): 1 (1=0-19% damage); herbicidal damage, POST Application SOLNI (Solanum nigrum (SOLNI) [4]; five point scale): 4 (4=60-79% damage); herbicidal damage, PRE Application ALOMY ([5]; five point scale): 1 (1=0-19% damage); herbicidal damage, PRE Application ECHCG ([6]; five point scale): 1 (1=0-19% damage); herbicidal damage, POST Application ECHCG ([7]; five point scale): 1 (1=0-19% damage); herbicidal damage, POST Application SETFA (Setaria faberi (SETFA) [8]; five point scale): 1 (1=0-19% damage); herbicidal damage, PRE Application SOLNI (Solanum nigrum (SOLNI) [9]; five point scale): 1 (1=0-19% damage); herbicidal damage, POST Application AMARE ([10]; five point scale): 1 (1=0-19% damage); herbicidal damage, PRE Application IPOHE ([11]; five point scale): 2 (2=20-39% damage); herbicidal damage, PRE Application AMARE ([12]; five point scale): 2 (2=20-39% damage)

From patent US9693556B2, “Herbicidal pyridazinone derivatives” (SYNGENTA LIMITED, priority 2011, dated 2017)
